These results are taken from patent publication US20230103552A1, “SYSTEMS AND PHARMACEUTICAL COMPOSITIONS FOR TREATMENT BY DIRECT INJECTION OF A TARGETED POPULATION OF CELLS” (Privo Technologies, Inc., priority 2020, published 2023).

A value given as a limit tells only on which side of the number the result lay.

Series [1] deals with established colorectal (MC32a) and pancreatic (Panc02) tumors. To be noted: weekly i.t. injections; cited from earlier work.
For series [2], the system named is mice grafted with cancer cells. The series is described as follows: In-vivo mice study, tumor volume vs time. The source says: FIG. 6 provides a graph of change in Mice tumor volume vs time involving different treatments. The black curve corresponds to a control untreated tumor, the gray curve corresponds to intratumoreal injection with placebo particles containing no drug, the green curve corresponds to intravenous injection with drug, the red curve corresponds to intratumoreal injection of free drug, and the blue curve corresponds to injection with drug-encapsulated hydrogel PRV311.
Here, the PRV311 composition included microparticles loaded with the anti-tumor cytokine IL-12. […] It is hypothesized that the injected PRV311's polymeric mesh causes microparticles containing PRV311 to be retained locally, increasing efficacy.

For series [3] the following is noted: mouse, in vivo; cited from earlier work.

For the substance IL-12: potent antitumor cytokine, in series [1], the established tumors eradicated was ≤ 10%. Further, the tumor growth entry in series [2] (intratumoral injection) is recorded as “merely delayed tumor growth”; in series [2] (intravenous injection), “no significant change in tumor growth rate”. For the same substance, in series [3], the “local IL-12 retention” value was 1 to 2 days.
